Source: patent US11247965B2 (VenatoRx Pharmaceuticals, Inc., priority 2017, dated 2022)

How the values were obtained:
[1] = In vitro cytotoxicity, MTT cell viability assay in HepG2 cells; format: cell-based; settings: human, Cytotoxicity CC50
Procedure, shortened: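 Viability measured by MTT conversion, absorbance at 492 nm, as percent of vehicle-treated wells. Compounds spanned 30 μM to 1.0 nM in half-log steps over a 7-day exposure of parental HepG2 cells; CC50 derived by 4-parameter curve fit.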

[2] = system: HBV replication in HepAD38 cells; experiment: Anti-HBV activity in HepAD38 cells, extracellular HBV DNA by QPCR; format: cell-based, HBV (genotype D, serotype ayw); settings: Hepatitis B virus, HePAD38, 168 h, read-out: Anti-HBV EC50, HepAD38 cells, extracellular HBV DNA by QPCR, 7 days of incubation
Procedure, shortened: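 HepAD38 cells (HepG2 with tet-repressible HBV genotype D genome) seeded overnight, tetracycline removed, then treated 7 days with compounds (half-log dilutions, 30 μM–10 nM; 1:200 from DMSO). Supernatant HBV DNA quantified by QPCR against standard curve; % inhibition vs vehicle, EC50 by 4-parameter fit.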

SMILES | CC50 at 7 days [1] | EC50 [2]
Cc1ccc(C(=O)Nc2cc(F)c(F)c(F)c2)cc1C(F)(F)C(=O)N1[C@@H]2CC[C@H]1C[C@H](O)C2 [Example 205, 3-(1,1-difluoro-2-((1R,3s,5S)-3-hydroxy-8-azabicyclo[3.2.1]octan-8-yl)-2-oxoethyl)-4-methyl-N-(3,4,5-trifluorophenyl)benzamide] | 5 to 30 µM | 5 to 30 µM
Cc1ccc(C(=O)Nc2ccc(F)c(Cl)c2)cc1C(F)(F)C(=O)N1[C@@H]2CC[C@H]1C[C@H](O)C2 [Example 206, N-(3-chloro-4-fluorophenyl)-3-(1,1-difluoro-2-((1R,3s,5S)-3-hydroxy-8-azabicyclo[3.2.1]octan-8-yl)-2-oxoethyl)-4-methylbenzamide] | 5 to 30 µM | < 5 µM
Cc1cc(NC(=O)c2cccc(C(F)(F)C(=O)N3[C@@H]4CC[C@H]3C[C@H](O)C4)c2F)ccc1F [Example 207, 3-(1,1-difluoro-2-((1R,3s,5S)-3-hydroxy-8-azabicyclo[3.2.1]octan-8-yl)-2-oxoethyl)-2-fluoro-N-(4-fluoro-3-methylphenyl)benzamide] | 5 to 30 µM | < 5 µM
Cc1cc(NC(=O)c2ccc(F)c(C(F)(F)C(=O)N3[C@@H]4CNC[C@H]3COC4)c2)ccc1F [Example 208, 3-(2-((1R,5S)-3-oxa-7,9-diazabicyclo[3.3.1]nonan-9-yl)-1,1-difluoro-2-oxoethyl)-4-fluoro-N-(4-fluoro-3-methylphenyl)benzamide] | 5 to 30 µM | < 5 µM
Cc1cc(NC(=O)c2ccc(F)c(C(F)(F)C(=O)N3[C@@H]4COC[C@H]3CN(C(=O)OC(C)(C)C)C4)c2)ccc1F [Example 209, tert-butyl (1R,5S)-9-(2,2-difluoro-2-(2-fluoro-5-((4-fluoro-3-methylphenyl)carbamoyl)phenyl)acetyl)-3-oxa-7,9-diazabicyclo[3.3.1]nonane-7-carboxylate] | 5 to 30 µM | < 5 µM
Cc1cc(NC(=O)c2ccc(F)c(C(F)(F)C(=O)N3[C@@H]4COC[C@H]3CN(C(=O)N3CCS(=O)(=O)CC3)C4)c2)ccc1F [Example 210, 3-(2-((1R,5S)-7-(1,1-dioxidothiomorpholine-4-carbonyl)-3-oxa-7,9-diazabicyclo[3.3.1]nonan-9-yl)-1,1-difluoro-2-oxoethyl)-4-fluoro-N-(4-fluoro-3-methylphenyl)benzamide] | > 30 µM | < 5 µM
Cc1cc(NC(=O)c2ccc(F)c(C(F)(F)C(=O)N3[C@@H]4COC[C@H]3CN(S(C)(=O)=O)C4)c2)ccc1F [Example 211, 3-(1,1-difluoro-2-((1R,5S)-7-(methylsulfonyl)-3-oxa-7,9-diazabicyclo[3.3.1]nonan-9-yl)-2-oxoethyl)-4-fluoro-N-(4-fluoro-3-methylphenyl)benzamide] | > 30 µM | < 5 µM
Cc1cc(NC(=O)c2ccc(F)c(C(F)(F)C(=O)N3CCC(O)(C(N)=O)CC3)c2)ccc1F [Example 212, 1-(2,2-difluoro-2-(2-fluoro-5-((4-fluoro-3-methylphenyl)carbamoyl)phenyl)acetyl)-4-hydroxypiperidine-4-carboxamide] | 5 to 30 µM | < 5 µM
Cc1cc(NC(=O)c2ccc(F)c(C(F)(F)C(=O)N3[C@@H]4CC[C@H]3COC4)c2)ccc1F [Example 213, 3-(2-((1R,5S)-3-oxa-8-azabicyclo[3.2.1]octan-8-yl)-1,1-difluoro-2-oxoethyl)-4-fluoro-N-(4-fluoro-3-methylphenyl)benzamide] | > 30 µM | < 5 µM
Cc1cc(NC(=O)c2ccc(F)c(C(F)(F)C(=O)N3[C@H](C)CNC[C@@H]3C)c2)ccc1F [Example 214, 3-(2-((2S,6R)-2,6-dimethylpiperazin-1-yl)-1,1-difluoro-2-oxoethyl)-4-fluoro-N-(4-fluoro-3-methylphenyl)benzamide] | 5 to 30 µM | < 5 µM
Cc1cc(NC(=O)c2ccc(F)c(C(F)(F)C(=O)N3[C@@H]4CCC[C@H]3[C@H](O)C4)c2)ccc1F [Example 215, 3-(1,1-difluoro-2-((1R,5S,6R)-6-hydroxy-8-azabicyclo[3.2.1]octan-8-yl)-2-oxoethyl)-4-fluoro-N-(4-fluoro-3-methylphenyl)benzamide] | 5 to 30 µM | < 5 µM
Cc1cc(NC(=O)c2ccc(F)c(C(F)(F)C(=O)N3[C@@H]4CCC[C@H]3C[C@@H](O)C4)c2)ccc1F [Example 216, 3-(1,1-difluoro-2-((1R,3r,5S)-3-hydroxy-9-azabicyclo[3.3.1]nonan-9-yl)-2-oxoethyl)-4-fluoro-N-(4-fluoro-3-methylphenyl)benzamide] | 5 to 30 µM | < 5 µM
Cc1cc(NC(=O)c2ccc(F)c(C(F)(F)C(=O)N3[C@@H]4CCC[C@H]3C[C@H](O)C4)c2)ccc1F [Example 217, 3-(1,1-difluoro-2-((1R,3s,5S)-3-hydroxy-9-azabicyclo[3.3.1]nonan-9-yl)-2-oxoethyl)-4-fluoro-N-(4-fluoro-3-methylphenyl)benzamide] | 5 to 30 µM | < 5 µM
Cc1cc(NC(=O)c2cc(C(F)(F)C(=O)N3[C@@H]4CC[C@H]3C[C@H](O)C4)c(F)cc2F)ccc1F [Example 218, 5-(1,1-difluoro-2-((1R,3s,5S)-3-hydroxy-8-azabicyclo[3.2.1]octan-8-yl)-2-oxoethyl)-2,4-difluoro-N-(4-fluoro-3-methylphenyl)benzamide] | > 30 µM | < 5 µM
Cc1cc(NC(=O)c2cc(F)cc(C(F)(F)C(=O)N3[C@@H]4CC[C@H]3C[C@H](O)C4)c2)ccc1F [Example 219, 3-(1,1-difluoro-2-((1R,3s,5S)-3-hydroxy-8-azabicyclo[3.2.1]octan-8-yl)-2-oxoethyl)-5-fluoro-N-(4-fluoro-3-methylphenyl)benzamide] | 5 to 30 µM | 5 to 30 µM
Cc1cc(NC(=O)c2cc(C(F)(F)C(=O)N3[C@@H]4CC[C@H]3C[C@H](O)C4)ccc2F)ccc1F [Example 220, 5-(1,1-difluoro-2-((1R,3s,5S)-3-hydroxy-8-azabicyclo[3.2.1]octan-8-yl)-2-oxoethyl)-2-fluoro-N-(4-fluoro-3-methylphenyl)benzamide] | 5 to 30 µM | < 5 µM
Cc1cc(NC(=O)c2ccc(Cl)c(C(F)(F)C(=O)N3[C@@H]4CC[C@H]3C[C@H](O)C4)c2)ccc1F [Example 221, 4-chloro-3-(1,1-difluoro-2-((1R,3s,5S)-3-hydroxy-8-azabicyclo[3.2.1]octan-8-yl)-2-oxoethyl)-N-(4-fluoro-3-methylphenyl)benzamide] | 5 to 30 µM | < 5 µM
Cc1cc(NC(=O)c2ccc(F)c(C(F)(F)C(=O)N3CCC(O)(CO)CC3)c2)cc(F)n1 [Example 222, 3-(1,1-difluoro-2-(4-hydroxy-4-(hydroxymethyl)piperidin-1-yl)-2-oxoethyl)-4-fluoro-N-(2-fluoro-6-methylpyridin-4-yl)benzamide] | > 30 µM | 5 to 30 µM
Cc1cc(NC(=O)c2ccc(F)c(C(F)(F)C(=O)N3[C@@H]4CC[C@H]3C[C@H](O)C4)c2)cc(F)n1 [Example 223, 3-(1,1-difluoro-2-((1R,3s,5S)-3-hydroxy-8-azabicyclo[3.2.1]octan-8-yl)-2-oxoethyl)-4-fluoro-N-(2-fluoro-6-methylpyridin-4-yl)benzamide] | < 5 µM | < 5 µM
Cc1cc(NC(=O)c2ccc(F)c(C(F)(F)C(=O)N3[C@@H]4CC[C@H]3C[C@@H](O)C4)c2)cc(F)n1 [Example 224, 3-(1,1-difluoro-2-((1R,3r,5S)-3-hydroxy-8-azabicyclo[3.2.1]octan-8-yl)-2-oxoethyl)-4-fluoro-N-(2-fluoro-6-methylpyridin-4-yl)benzamide] | < 5 µM | < 5 µM
Cc1cc(NC(=O)c2ccc(F)c(C(F)(F)C(=O)N3[C@@H]4CC[C@H]3C[C@@H](NC(=O)OC(C)(C)C)C4)c2)ccc1F [Example 225, tert-butyl ((1R,3r,5S)-8-(2,2-difluoro-2-(2-fluoro-5-((4-fluoro-3-methylphenyl)carbamoyl)phenyl)acetyl)-8-azabicyclo[3.2.1]octan-3-yl)carbamate] | 5 to 30 µM | < 5 µM
Cc1cc(NC(=O)c2ccc(F)c(C(F)(F)C(=O)N3[C@@H]4CC[C@H]3C[C@@H](N)C4)c2)ccc1F [Example 226, 3-(2-((1R,3r,5S)-3-amino-8-azabicyclo[3.2.1]octan-8-yl)-1,1-difluoro-2-oxoethyl)-4-fluoro-N-(4-fluoro-3-methylphenyl)benzamide] | 5 to 30 µM | < 5 µM
CC(=O)N[C@@H]1C[C@H]2CC[C@@H](C1)N2C(=O)C(F)(F)c1cc(C(=O)Nc2ccc(F)c(C)c2)ccc1F [Example 227, 3-(2-((1R,3s,5S)-3-acetamido-8-azabicyclo[3.2.1]octan-8-yl)-1,1-difluoro-2-oxoethyl)-4-fluoro-N-(4-fluoro-3-methylphenyl)benzamide] | 5 to 30 µM | < 5 µM
Cc1cc(NC(=O)c2ccc(F)c(C(F)(F)C(=O)N3[C@@H]4CC[C@H]3C[C@H](N)C4)c2)ccc1F [Example 228, 3-(2-((1R,3s,5S)-3-amino-8-azabicyclo[3.2.1]octan-8-yl)-1,1-difluoro-2-oxoethyl)-4-fluoro-N-(4-fluoro-3-methylphenyl)benzamide] | 5 to 30 µM | < 5 µM
Cc1cc(NC(=O)c2ccc(F)c(C(F)(F)C(=O)N3CCC(NC(=O)OC(C)(C)C)CC3)c2)ccc1F [Example 229, tert-butyl (1-(2,2-difluoro-2-(2-fluoro-5-((4-fluoro-3-methylphenyl)carbamoyl)phenyl)acetyl)piperidin-4-yl)carbamate] | 5 to 30 µM | < 5 µM
